Experimental data as given in PMC9030254, “Target Hopping from Protein Kinases to PXR: Identification of Small-Molecule Protein Kinase Inhibitors as Selective Modulators of Pregnane X Receptor from TüKIC Library” (Cells, 2022).

Key:
Assay in all cases: Kinase profiling
Assay type in all cases: biochemical
AuroraB = molecular target: T1, AuroraB (Homo sapiens, UniProt Q96GD4)
T1 construct: purchased ProQinase (Freiburg, Germany)
Method: (§1) The analysis was performed by ProQinase (Freiburg, Germany).

BUB1B = molecular target: T2, BUB1B (Homo sapiens, UniProt O60566)
T2 construct: purchased ProQinase (Freiburg, Germany)
Method: as §1

CDK3/CycC = molecular target: T3, CDK3/CycC (Homo sapiens, UniProt Q00526)
T3 construct: purchased ProQinase (Freiburg, Germany)
T3 sequence (Q00526 whole entry): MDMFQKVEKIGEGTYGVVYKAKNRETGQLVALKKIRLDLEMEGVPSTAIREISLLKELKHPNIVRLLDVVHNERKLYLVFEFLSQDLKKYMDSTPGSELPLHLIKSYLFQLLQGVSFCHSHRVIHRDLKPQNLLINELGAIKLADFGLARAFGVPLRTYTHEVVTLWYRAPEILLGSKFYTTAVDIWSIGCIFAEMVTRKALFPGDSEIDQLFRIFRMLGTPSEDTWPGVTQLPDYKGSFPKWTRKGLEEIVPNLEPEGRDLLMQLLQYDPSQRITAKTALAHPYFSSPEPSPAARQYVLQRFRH
T3 sequence (P24863 whole entry partner): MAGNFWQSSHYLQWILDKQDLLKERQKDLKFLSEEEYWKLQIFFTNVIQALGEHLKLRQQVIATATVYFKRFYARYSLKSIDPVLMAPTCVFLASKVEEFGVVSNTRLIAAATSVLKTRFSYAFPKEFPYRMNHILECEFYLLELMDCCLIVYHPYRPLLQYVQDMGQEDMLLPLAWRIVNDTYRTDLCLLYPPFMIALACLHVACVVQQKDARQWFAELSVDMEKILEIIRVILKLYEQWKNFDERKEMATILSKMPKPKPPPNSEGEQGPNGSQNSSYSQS
Method: as §1

CLK4 = molecular target: T4, CLK4 (Homo sapiens, UniProt Q9HAZ1)
T4 construct: purchased ProQinase (Freiburg, Germany)
Method: as §1

FGFR3 = molecular target: T5, FGFR3 (Homo sapiens, UniProt P22607)
T5 construct: purchased ProQinase (Freiburg, Germany)
T5 sequence (P22607 23-806): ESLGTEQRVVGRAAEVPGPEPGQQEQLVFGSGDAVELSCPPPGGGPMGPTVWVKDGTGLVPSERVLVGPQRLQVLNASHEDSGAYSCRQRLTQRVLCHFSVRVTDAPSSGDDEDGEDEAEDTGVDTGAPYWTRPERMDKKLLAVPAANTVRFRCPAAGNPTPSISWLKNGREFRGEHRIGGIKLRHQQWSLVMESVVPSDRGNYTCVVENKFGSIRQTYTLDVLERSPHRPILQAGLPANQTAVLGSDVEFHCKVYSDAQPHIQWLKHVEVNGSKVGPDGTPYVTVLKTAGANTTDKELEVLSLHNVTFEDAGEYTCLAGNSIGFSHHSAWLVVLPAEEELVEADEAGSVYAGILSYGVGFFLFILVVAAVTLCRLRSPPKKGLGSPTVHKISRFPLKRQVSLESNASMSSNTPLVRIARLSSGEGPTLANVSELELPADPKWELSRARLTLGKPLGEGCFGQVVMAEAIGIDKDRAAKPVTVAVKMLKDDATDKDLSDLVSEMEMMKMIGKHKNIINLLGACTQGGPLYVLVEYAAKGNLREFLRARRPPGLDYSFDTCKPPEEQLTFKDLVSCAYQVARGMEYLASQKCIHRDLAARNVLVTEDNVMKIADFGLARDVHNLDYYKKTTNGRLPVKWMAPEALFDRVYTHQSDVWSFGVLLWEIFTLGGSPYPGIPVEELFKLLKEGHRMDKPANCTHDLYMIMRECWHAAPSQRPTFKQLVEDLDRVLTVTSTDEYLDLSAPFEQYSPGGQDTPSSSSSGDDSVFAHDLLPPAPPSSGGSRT
Method: as §1

GRK3 = molecular target: T6, GRK3 (Homo sapiens, UniProt P35626)
T6 construct: purchased ProQinase (Freiburg, Germany)
T6 sequence (P35626 1-688): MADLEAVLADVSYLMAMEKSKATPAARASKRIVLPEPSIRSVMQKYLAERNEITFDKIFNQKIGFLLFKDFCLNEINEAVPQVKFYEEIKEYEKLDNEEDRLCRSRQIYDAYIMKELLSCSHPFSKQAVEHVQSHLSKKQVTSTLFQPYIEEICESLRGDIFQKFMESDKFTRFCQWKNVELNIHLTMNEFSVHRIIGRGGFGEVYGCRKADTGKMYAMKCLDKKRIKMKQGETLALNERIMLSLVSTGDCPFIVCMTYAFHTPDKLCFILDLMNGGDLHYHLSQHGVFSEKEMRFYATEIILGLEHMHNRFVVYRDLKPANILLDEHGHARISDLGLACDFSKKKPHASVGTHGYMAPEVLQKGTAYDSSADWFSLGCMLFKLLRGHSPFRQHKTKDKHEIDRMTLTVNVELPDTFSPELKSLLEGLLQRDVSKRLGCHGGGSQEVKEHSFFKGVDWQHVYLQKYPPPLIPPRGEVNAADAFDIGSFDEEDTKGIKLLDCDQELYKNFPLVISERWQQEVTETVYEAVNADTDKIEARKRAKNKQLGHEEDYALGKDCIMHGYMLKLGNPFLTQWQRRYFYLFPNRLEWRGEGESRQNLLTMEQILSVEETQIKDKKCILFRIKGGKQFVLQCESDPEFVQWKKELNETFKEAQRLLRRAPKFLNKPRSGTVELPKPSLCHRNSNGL
Method: as §1

HIPK2 = molecular target: T7, HIPK2 (Homo sapiens, UniProt Q9H2X6)
T7 construct: purchased ProQinase (Freiburg, Germany)
T7 sequence (Q9H2X6 whole entry): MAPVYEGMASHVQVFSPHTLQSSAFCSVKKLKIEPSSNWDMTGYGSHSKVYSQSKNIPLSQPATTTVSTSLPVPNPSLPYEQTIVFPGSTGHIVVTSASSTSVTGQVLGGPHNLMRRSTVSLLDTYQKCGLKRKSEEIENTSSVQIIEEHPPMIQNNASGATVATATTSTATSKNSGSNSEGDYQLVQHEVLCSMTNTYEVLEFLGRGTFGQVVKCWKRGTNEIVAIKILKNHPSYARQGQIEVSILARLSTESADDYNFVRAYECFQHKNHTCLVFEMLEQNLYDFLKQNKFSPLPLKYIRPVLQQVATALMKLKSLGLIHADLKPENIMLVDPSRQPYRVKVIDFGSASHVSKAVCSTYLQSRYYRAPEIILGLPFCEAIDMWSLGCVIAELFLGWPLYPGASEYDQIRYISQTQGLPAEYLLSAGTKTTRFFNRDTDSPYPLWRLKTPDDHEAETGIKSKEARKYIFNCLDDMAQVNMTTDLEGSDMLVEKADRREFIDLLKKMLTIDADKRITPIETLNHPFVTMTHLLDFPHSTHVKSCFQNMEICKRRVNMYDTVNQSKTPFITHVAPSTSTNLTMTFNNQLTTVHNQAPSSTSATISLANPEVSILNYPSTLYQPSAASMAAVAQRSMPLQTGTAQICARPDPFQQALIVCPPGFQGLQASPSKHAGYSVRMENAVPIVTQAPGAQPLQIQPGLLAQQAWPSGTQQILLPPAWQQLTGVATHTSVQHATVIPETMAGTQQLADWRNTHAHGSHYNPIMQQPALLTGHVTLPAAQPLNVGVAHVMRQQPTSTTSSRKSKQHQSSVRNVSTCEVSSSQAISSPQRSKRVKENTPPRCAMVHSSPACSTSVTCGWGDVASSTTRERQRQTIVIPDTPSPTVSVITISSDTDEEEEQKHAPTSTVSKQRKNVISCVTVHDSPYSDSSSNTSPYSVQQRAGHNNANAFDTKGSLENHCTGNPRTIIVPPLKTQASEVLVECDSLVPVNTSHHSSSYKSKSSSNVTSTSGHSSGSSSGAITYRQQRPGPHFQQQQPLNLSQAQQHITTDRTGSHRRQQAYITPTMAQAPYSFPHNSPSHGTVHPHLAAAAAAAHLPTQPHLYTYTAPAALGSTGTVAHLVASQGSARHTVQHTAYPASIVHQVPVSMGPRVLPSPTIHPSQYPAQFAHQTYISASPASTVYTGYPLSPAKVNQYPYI
Method: as §1

RPS6KA5 = molecular target: T8, RPS6KA5 (Homo sapiens, UniProt O75582)
T8 construct: purchased ProQinase (Freiburg, Germany)
T8 sequence (O75582 whole entry): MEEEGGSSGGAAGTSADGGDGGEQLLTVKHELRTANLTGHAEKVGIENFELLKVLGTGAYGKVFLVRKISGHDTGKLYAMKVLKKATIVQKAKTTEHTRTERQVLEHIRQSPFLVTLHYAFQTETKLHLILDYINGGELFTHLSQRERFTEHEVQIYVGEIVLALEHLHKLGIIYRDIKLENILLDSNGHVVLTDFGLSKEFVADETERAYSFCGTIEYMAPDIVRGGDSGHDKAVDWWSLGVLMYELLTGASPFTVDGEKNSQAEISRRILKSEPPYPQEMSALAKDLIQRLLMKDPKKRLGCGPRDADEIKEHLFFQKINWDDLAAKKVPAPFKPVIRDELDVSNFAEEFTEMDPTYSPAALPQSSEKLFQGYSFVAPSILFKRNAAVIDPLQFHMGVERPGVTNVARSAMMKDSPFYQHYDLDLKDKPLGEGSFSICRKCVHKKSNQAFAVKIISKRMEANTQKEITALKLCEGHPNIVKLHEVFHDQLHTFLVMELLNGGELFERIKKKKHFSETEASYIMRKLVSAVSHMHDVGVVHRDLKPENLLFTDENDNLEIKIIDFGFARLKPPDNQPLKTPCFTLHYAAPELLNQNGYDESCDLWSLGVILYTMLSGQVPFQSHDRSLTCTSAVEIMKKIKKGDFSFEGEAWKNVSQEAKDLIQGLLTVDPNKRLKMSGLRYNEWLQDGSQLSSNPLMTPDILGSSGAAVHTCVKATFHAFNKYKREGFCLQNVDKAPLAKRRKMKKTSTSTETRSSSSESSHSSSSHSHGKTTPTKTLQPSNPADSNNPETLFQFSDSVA
Method: as §1

SNARK = molecular target: T9, SNARK (Homo sapiens, UniProt Q9H093)
T9 construct: purchased ProQinase (Freiburg, Germany)
T9 sequence (Q9H093 1-628): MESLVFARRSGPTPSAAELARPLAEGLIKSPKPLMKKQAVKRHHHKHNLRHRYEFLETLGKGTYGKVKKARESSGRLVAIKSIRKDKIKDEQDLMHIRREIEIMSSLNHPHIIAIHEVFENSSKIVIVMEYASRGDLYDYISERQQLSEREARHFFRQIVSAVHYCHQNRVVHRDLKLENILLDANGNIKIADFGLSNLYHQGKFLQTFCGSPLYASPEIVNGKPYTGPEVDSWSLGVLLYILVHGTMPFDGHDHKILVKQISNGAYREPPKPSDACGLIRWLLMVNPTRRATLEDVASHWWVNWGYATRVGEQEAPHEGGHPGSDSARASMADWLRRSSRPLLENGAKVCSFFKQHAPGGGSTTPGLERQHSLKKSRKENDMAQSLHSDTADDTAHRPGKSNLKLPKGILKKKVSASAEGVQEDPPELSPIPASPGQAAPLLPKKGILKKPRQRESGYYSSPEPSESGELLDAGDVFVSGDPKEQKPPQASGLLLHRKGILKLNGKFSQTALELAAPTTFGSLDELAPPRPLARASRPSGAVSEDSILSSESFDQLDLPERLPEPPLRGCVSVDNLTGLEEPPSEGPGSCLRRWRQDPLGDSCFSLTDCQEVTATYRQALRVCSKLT
Method: as §1

SRMS = molecular target: T10, SRMS (Homo sapiens, UniProt Q9H3Y6)
T10 construct: purchased ProQinase (Freiburg, Germany)
T10 sequence (Q9H3Y6 whole entry): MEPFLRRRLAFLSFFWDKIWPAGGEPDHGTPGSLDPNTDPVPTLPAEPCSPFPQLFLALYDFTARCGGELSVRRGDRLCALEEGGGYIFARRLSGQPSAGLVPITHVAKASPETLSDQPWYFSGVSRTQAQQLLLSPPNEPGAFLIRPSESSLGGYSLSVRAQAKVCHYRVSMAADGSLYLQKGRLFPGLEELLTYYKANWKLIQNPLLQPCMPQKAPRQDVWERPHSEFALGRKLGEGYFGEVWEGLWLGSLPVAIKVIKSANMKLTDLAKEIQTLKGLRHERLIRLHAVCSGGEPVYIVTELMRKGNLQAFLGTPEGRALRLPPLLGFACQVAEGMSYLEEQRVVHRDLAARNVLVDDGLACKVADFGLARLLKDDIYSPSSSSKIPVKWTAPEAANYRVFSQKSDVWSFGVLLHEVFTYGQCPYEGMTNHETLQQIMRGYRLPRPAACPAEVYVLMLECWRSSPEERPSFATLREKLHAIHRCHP
Method: as §1

SRPK1 = molecular target: T11, SRPK1 (Homo sapiens, UniProt Q96SB4)
T11 construct: purchased ProQinase (Freiburg, Germany)
T11 sequence (Q96SB4 whole entry): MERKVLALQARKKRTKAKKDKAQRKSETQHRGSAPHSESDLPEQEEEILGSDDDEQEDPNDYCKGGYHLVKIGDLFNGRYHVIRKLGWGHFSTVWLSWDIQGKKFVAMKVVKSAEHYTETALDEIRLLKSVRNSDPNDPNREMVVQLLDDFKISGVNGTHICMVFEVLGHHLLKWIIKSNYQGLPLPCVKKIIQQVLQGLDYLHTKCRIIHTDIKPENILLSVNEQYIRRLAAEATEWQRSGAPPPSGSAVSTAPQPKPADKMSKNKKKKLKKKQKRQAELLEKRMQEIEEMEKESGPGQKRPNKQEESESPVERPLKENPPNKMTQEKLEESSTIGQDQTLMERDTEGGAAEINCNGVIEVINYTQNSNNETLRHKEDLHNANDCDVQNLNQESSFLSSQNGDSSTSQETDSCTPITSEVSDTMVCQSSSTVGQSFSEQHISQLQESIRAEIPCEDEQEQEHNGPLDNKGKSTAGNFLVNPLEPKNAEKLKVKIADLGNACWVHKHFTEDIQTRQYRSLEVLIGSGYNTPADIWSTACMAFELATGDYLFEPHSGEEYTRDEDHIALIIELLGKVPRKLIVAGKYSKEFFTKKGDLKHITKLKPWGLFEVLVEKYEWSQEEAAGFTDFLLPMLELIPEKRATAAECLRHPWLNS
Method: as §1

TAOK3 = molecular target: T12, TAOK3 (Homo sapiens, UniProt Q9H2K8)
T12 construct: purchased ProQinase (Freiburg, Germany)
T12 sequence (Q9H2K8 1-898): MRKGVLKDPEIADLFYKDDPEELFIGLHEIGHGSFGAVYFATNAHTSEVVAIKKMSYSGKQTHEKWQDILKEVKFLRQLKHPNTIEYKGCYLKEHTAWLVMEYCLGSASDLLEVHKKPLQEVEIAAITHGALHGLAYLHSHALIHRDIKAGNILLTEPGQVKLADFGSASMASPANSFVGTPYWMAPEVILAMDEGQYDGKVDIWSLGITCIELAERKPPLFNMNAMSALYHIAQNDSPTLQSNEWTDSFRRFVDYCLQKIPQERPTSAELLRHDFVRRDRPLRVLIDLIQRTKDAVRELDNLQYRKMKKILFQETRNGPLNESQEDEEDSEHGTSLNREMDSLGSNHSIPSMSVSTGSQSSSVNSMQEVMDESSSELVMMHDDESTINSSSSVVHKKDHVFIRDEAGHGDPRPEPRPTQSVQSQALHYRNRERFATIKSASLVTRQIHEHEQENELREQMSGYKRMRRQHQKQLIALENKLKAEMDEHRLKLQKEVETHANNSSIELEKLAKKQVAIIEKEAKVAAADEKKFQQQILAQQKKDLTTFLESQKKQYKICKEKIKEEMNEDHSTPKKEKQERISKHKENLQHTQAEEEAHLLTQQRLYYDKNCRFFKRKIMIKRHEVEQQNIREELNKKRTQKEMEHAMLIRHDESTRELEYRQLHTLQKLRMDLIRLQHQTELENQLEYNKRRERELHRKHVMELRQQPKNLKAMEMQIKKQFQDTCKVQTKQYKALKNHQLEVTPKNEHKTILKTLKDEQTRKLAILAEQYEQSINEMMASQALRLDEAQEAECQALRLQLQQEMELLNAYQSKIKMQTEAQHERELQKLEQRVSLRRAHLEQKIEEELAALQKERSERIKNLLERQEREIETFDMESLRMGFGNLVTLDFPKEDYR
Method: as §1

T1 sequence (Q96GD4 whole entry): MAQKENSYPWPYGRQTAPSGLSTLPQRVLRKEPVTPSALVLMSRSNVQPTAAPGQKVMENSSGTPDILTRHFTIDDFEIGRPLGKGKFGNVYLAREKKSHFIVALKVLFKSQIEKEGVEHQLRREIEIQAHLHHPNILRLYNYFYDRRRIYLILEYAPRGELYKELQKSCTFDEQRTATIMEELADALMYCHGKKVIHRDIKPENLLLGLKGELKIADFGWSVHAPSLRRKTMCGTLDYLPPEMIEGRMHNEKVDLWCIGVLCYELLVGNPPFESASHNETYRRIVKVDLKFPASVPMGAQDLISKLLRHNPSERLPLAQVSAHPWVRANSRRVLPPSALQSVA

SMILES: O=C(Cc1ccccc1)Nc1ccc(F)c(Nc2ccc3c(c2)CCCCC3=O)c1 [Compound 100]
- Residual activity (AuroraB; 1.0E-05 M): 90 % of control
- Residual activity (AuroraB; 1.0E-06 M): 101 % of control
- Residual activity (BUB1B; 1.0E-05 M): 96 % of control
- Residual activity (BUB1B; 1.0E-06 M): 108 % of control
- Residual activity (CDK3/CycC; 1.0E-05 M): 89 % of control
- Residual activity (CDK3/CycC; 1.0E-06 M): 97 % of control
- Residual activity (CLK4; 1.0E-05 M): 98 % of control
- Residual activity (CLK4; 1.0E-06 M): 103 % of control
- Residual activity (FGFR3; 1.0E-05 M): 76 % of control
- Residual activity (FGFR3; 1.0E-06 M): 98 % of control
- Residual activity (GRK3; 1.0E-05 M): 144 % of control
- Residual activity (GRK3; 1.0E-06 M): 118 % of control
- Residual activity (HIPK2; 1.0E-05 M): 101 % of control
- Residual activity (HIPK2; 1.0E-06 M): 97 % of control
- Residual activity (RPS6KA5; 1.0E-05 M): 97 % of control
- Residual activity (RPS6KA5; 1.0E-06 M): 104 % of control
- Residual activity (SNARK; 1.0E-05 M): 92 % of control
- Residual activity (SNARK; 1.0E-06 M): 107 % of control
- Residual activity (SRMS; 1.0E-05 M): 93 % of control
- Residual activity (SRMS; 1.0E-06 M): 102 % of control
- Residual activity (SRPK1; 1.0E-05 M): 71 % of control
- Residual activity (SRPK1; 1.0E-06 M): 94 % of control
- Residual activity (TAOK3; 1.0E-05 M): 98 % of control
- Residual activity (TAOK3; 1.0E-06 M): 105 % of control

SMILES: O=C(Nc1ccc(F)c(Nc2ccc3c(c2)CCCCC3=O)c1)c1cccc(F)c1 [Compound 109]
- Residual activity (AuroraB; 1.0E-05 M): 85 % of control
- Residual activity (AuroraB; 1.0E-06 M): 101 % of control
- Residual activity (BUB1B; 1.0E-05 M): 106 % of control
- Residual activity (BUB1B; 1.0E-06 M): 104 % of control
- Residual activity (CDK3/CycC; 1.0E-05 M): 96 % of control
- Residual activity (CDK3/CycC; 1.0E-06 M): 87 % of control
- Residual activity (CLK4; 1.0E-05 M): 108 % of control
- Residual activity (CLK4; 1.0E-06 M): 105 % of control
- Residual activity (FGFR3; 1.0E-05 M): 95 % of control
- Residual activity (FGFR3; 1.0E-06 M): 110 % of control
- Residual activity (GRK3; 1.0E-05 M): 138 % of control
- Residual activity (GRK3; 1.0E-06 M): 122 % of control
- Residual activity (HIPK2; 1.0E-05 M): 95 % of control
- Residual activity (HIPK2; 1.0E-06 M): 90 % of control
- Residual activity (RPS6KA5; 1.0E-05 M): 93 % of control
- Residual activity (RPS6KA5; 1.0E-06 M): 96 % of control
- Residual activity (SNARK; 1.0E-05 M): 98 % of control
- Residual activity (SNARK; 1.0E-06 M): 105 % of control
- Residual activity (SRMS; 1.0E-05 M): 97 % of control
- Residual activity (SRMS; 1.0E-06 M): 98 % of control
- Residual activity (SRPK1; 1.0E-05 M): 68 % of control
- Residual activity (SRPK1; 1.0E-06 M): 96 % of control
- Residual activity (TAOK3; 1.0E-05 M): 91 % of control
- Residual activity (TAOK3; 1.0E-06 M): 99 % of control
